The source of these data is article PMC10733463, “Berberine-microbiota interplay: orchestrating gut health through modulation of the gut microbiota and metabolic transformation into bioactive metabolites” (Frontiers in Pharmacology, 2023).

Data set [1] can be described thus: UPLC-MS/MS quantification of berberine and metabolites in ileal and caecal content. It counts as in vivo, Ross 308 broiler chickens. Conditions: 21 days. From the text: (§1) The study was undertaken following the guidelines of the ethics committee of the Faculty of Veterinary Medicine and Bioscience Engineering, Ghent University, in accordance with the EU Directive 2010/63/EU. One-day-old Ross 308 male broilers were obtained from a local hatchery and housed in pens on wood shavings. They were allotted into 4 groups, with three replicate pens per group each housing 8 chickens. The animals were not vaccinated. Water and commercial starter feed (day 1–12, FARM 1 Mash, Country’s Best, Versele Laga, Deinze, Belgium) or grower (day 13–21, FARM 2 mash, Country’s Best, Versele Laga, Deinze, Belgium) were provided ad libitum. The control group received the standard non-supplemented diets, whereas the chickens in other groups were fed the same feed supplemented with 0.1, 0.5 or 1 g berberine/kg feed throughout the whole trial period. At day 21, 4 birds per pen were weighted then euthanized by sodium pentobarbital injection for sampling. Individual jejunal, ileal, caecal and colonic contents were stored at −20°C for microbiota composition analysis (16S rRNA gene sequencing). Additionally, ileal and caecal content samples were collected and stored at −20°C for berberine and berberine-derived metabolite quantification. Duodenal tissue samples were collected and fixed in 4% phosphate buffered formaldehyde for histological analysis. Blood samples were collected in heparin tubes and centrifuged at 524 g for 10 min to recover the plasma fraction, which was further mixed with 17 mg/mL L-ascorbic acid for dihydroberberine stabilization, and stored at −20°C for berberine and berberine-derived metabolite quantification.
(§2) The column temperature was maintained at 25°C. The autosampler temperature was set at 10°C.
250 mg of ileal or caecal content was weighed in a 15 mL polypropylene centrifuge tube and 250 µL of ascorbic acid 170 mg/mL solution was added for stabilization of dihydroberberine, followed by brief vortexing. Subsequently, 25 µL of an internal standard solution containing 250 μg/mL of berberine-d6 and 2.5 μg/mL tetrahydropalmatine were added, followed by brief vortexing. A 2.5 mL volume of extraction solvent was then added, consisting of a 1% (v/v) formic acid solution in methanol. The sample was put on a rotary shaker set at 80 rpm for 20 min, followed by centrifugation (3,720 g, 10 min, 4°C). The supernatant was then diluted, by a factor 5 for measurement of low abundance components, and by a factor 2,000 for measurement of high abundance components. The 1/5 diluted sample extract was prepared directly in an autosampler vial as follows: 200 µL sample extract were mixed with 100 µL ascorbic acid 170 mg/mL solution and 700 µL Milli-Q water. For the 1/2,000 diluted sample extract, an intermediate 1/100 sample dilution was prepared by combining 500 µL sample extract and 49.5 mL of Milli-Q water. 50 μL was then transferred in an autosampler vial followed by the addition of 950 µL of Milli-Q water. For both dilutions, a 5 µL sample aliquot was injected onto the UPLC-MS/MS apparatus. Quantification was based on the ratio of the analyte peak area compared to the peak area of the internal standard tetrahydropalmatine for 1/5 diluted sample extracts, and on the ratio of the analyte peak area compared to the peak area of the internal standard berberine-d6 for 1/2,000 diluted sample extracts.
Calibration standards and quality control samples were prepared as follows: 250 mg of blank ileal or caecal content were supplemented with 250 µL of ascorbic acid 170 mg/mL solution, 25 µL mixed solution of berberine and metabolites (with the exception of dihydroberberine) at different levels, 25 µL of dihydroberberine solution, stabilized with 17 mg/mL ascorbic acid, at different levels and 25 µL of an internal standard solution containing 0.625 μg/mL of berberine-d6 and 2.5 μg/mL tetrahydropalmatine. The calibration curve was in the 62.5–5,000 ng/g range, and included 62.5, 125, 250, 500, 1,000, 2,500, and 5,000 ng/g levels. […]

The nature of data set [2]: UPLC-MS/MS quantification of berberine and metabolites in plasma. It counts as in vivo, Ross 308 broiler chickens. The settings on record: chickens fed 0.1, 0.5 or 1 g berberine/kg feed for 21 days; LOQ 0.1 ng/mL.
From the text: as §1, §2
A 137.5 µL plasma sample containing 17 mg/mL L-ascorbic acid was used for sample extraction. The ascorbic acid solution was added to prevent oxidation of dihydroberberine to berberine during sample storage ([Feng et al., 2015]). The plasma sample was transferred to an OstroTM 96 well-plate (25 mg) (Waters). Subsequently, 50 µL Milli-Q water and 25 µL of an internal standard solution containing 100 ng/mL of both berberine-d6 and tetrahydropalmatine were added. A 640 µL volume of 1% (v/v) formic acid solution in acetonitrile (1/3 ratio) was added, followed by gentle mixing. Vacuum was applied on the Ostro™ plate for 5 min and the eluate was collected in a 2 mL square 96-well collector plate. The sample was transferred in a glass tube and evaporated at 40°C under a gentle stream of nitrogen in a Pierce (Rockford, United States) Reacti-Therm III™ Heating Module and Reacti-Vap™ III Module. The dried sample extract was reconstituted in 500 µL Milli-Q water, followed by injection of a 5 µL sample aliquot onto the UPLC-MS/MS apparatus. Quantification was based on the ratio of the analyte peak area compared to the peak area of the internal standard berberine-d6.
Calibration standards and quality control samples were prepared as follows: 137.5 µL of blank plasma stabilized with 17 mg/mL L-ascorbic acid were supplemented with 25 µL mixed working solutions of berberine and metabolites (except dihydroberberine) at different levels, 25 µL of dihydroberberine working solution, stabilized with 17 mg/mL L-ascorbic acid, at different levels and 25 µL of an internal standard solution containing 100 ng/mL of both berberine-d6 and tetrahydropalmatine. The calibration curve was in the 0.1–100 ng/mL range, including 0.1, 0.5, 1, 2.5, 5, 10, 25, […], 50 and 100 ng/mL levels.
The UPLC-MS/MS analysis method for the quantification of berberine and berberine-derived metabolites both in plasma and ileal/caecal intestinal content was validated to the guidelines of the European Medicines Agency, i.e., of the Committee for Veterinary Medicinal Products (EMEA/CVMP/VICH/463202/2009) and of the Committee for Medicinal Products for Human Use (EMEA/CHMP/EWP/192217/20), and in accordance with the EU Directive 2002/657/EC. […]

For another data set, the system named is Caco-2 monolayers. Also noted: method as in Zhang et al., 2019. The settings on record: in vitro, among berberine metabolites; ref Zhang et al., 2019; cited from earlier work.
For data set [3], the system named is B. coccoides (DSM 935). The settings on record: DSM 935, chicken, 10 µg/mL, pH 6. How it is done: (§3) Six strains were tested for their ability to convert berberine into berberine-demethylated metabolites. […] Strains were sub-cultured overnight in M2GSC medium pH 6. The next day, caecal content from a 3-week-old broiler chicken was sampled in anaerobic conditions and 1:1,000 diluted in M2GSC medium pH 6 containing 10 μg/mL berberine. Caecal mixtures were enriched with 1:100 diluted overnight cultures of single bacteria, or with M2GSC (control), and incubated in a 24-well plate, for 48 h. […] Samples were collected and processed as described before. Each bacterial strain was tested in triplicate at 37°C–40°C under anaerobic conditions.
(§4) The UPLC instrument consisted of an Acquity H-Class Quaternary Solvent Manager and an Acquity FTN Sample Manager (Waters, Berchem, Belgium). For chromatographic separation, an Acquity UPLC® HSS T3 column (1.8 µm, 100 mm × 2.1 mm i.d.) was used, protected by a precolumn of the same type (VanGuardTM, 5 mm × 2.1 mm i.d.), both from Waters. […] The column temperature was maintained at 25°C. The autosampler temperature was set at 10°C. The UPLC effluent was sent from 1.2 min to 9.5 min by use of a divert valve to a Xevo TQ-S® triple quadrupole mass spectrometer from Water, equipped with an ESI ion source operating in the positive ionization mode from. The UPLC-MS/MS analysis was run under control of MassLynx software (v4.1), which was used for subsequent data processing as well. For the injection of 1/5 diluted intestinal content samples (see section Preparation of intestinal content samples (ileum and caecum)), the divert valve was used in addition from 7.1 min to 8.4 min to deviate the high amount of berberine and associated IS berberine-d6 eluting in that time window from the UPLC column directly to the waste, rather than to the MS detector to avoid oversaturation of the instrument, influencing subsequent sample extract injections at well. Operating conditions for the ESI source used in the positive ionization mode were optimized by direct infusion of all individual components in combination with the mobile phase at 50% A/50% B delivered at a flow rate of 0.3 mL/min. The following tune parameters were used for detection of all components: capillary voltage, 3 kV, cone voltage, 10 V, source offset, 50 V, source temperature, 150°C, desolvation temperature, 500°C, desolvation gas flow, 800 L/h, cone gas flow, 150 L/h, collision gas flow, 0.2 mL/min, ion energy 1 and 2, 0.5, LM 1 and LM 2 resolution, 3, HM 1 and HM 2 resolution, 15. Components were detected in MS/MS mode using component specific MRM (Multiple Reaction Monitoring) transitions (Supplementary Table S1). Since a commercial standard of thalifendine was not available, MS/MS detection parameters and calibration of berberrubine were used for the detection and quantification of thalifendine, which is a reasonable approach, since both compounds are isomers. No commercial reference standards were available for phase II metabolites, therefore “calculated” MRM transitions were defined as follows: [M + -Gluc] > M+ for glucuronide forms and [M + -SO3] > M+ for sulfate forms, where the loss of glucuronic acid or sulfate corresponded to a mass shift of 176 Da or 80 Da respectively. Phase II metabolites were quantified relatively using the berberine calibration curve ([Wang et al., 2017a]; [Kwon et al., 2020]).

Data set [4] has as its system Blautia hansenii (DSM 20583). The settings on record: DSM 20583, chicken, 10 µg/mL, pH 6. The procedure: as §3, §4
In data set [5] the test system is Anaerostipes butyraticus (35–7). Conditions: 35-7, chicken, 10 µg/mL, pH 6. How it is done:
as §3, §4

A further data set relates to Blautia luti (DSM 14534). Conditions: DSM 14534, chicken, 10 µg/mL, pH 6. How it is done:
as §3, §4

For data set [6], the system named is Blautia hydrogenotrophica (DSM 10507). The settings on record: DSM 10507, chicken, 10 µg/mL, pH 6. The procedure:
as §3, §4

In data set [7] the test system is Eubacterium limosum (LMG 28910). Conditions: LMG 28910, chicken, 10 µg/mL, pH 6. The procedure: as §3, §4
In data set [8] the test system is B. coccoides (DSM 935). The settings on record: Blautia coccoides, 10 µg/mL, pH 6.
For data set [9] the following is noted: rats, oral administration of berberine; cited from earlier work.

As to `COc1cc2c(cc1O)-c1cc3ccc(OC)c(OC)c3c[n+]1CC2` [Columbamine, columbamine], the entries for the “Ratio caecum / ileum (concentration)” value in data set [1] (0.1 g berberine/kg feed), in data set [1] (0.5 g berberine/kg feed) and in data set [1] (1 g berberine/kg feed) were 0.27, 0.32 and 0.44, respectively. The Detection in plasma entry in [2] is “below LOQ”.
For `COc1ccc2cc3[n+](cc2c1OC)CCc1cc(O)c(O)cc1-3` [Demethyleneberberine], the “Permeability across Caco-2 monolayers” value in the data set with Caco-2 monolayers is listed as “most permeable”. Besides, the “Log2(fold change) of metabolite response at 48 h, culture with bacteria over control (berberine-medium + microbiota)” value in the data set with B. coccoides (DSM 935) [3] is on record as 1.07; in data set [4] it was -0.02; in [5], 0.15; in the data set with Blautia luti (DSM 14534), 1.34; in data set [6], -3.33e-003; in [7], 0.21. The “Ratio caecum / ileum (concentration)” value in data set [1] (0.1 g berberine/kg feed) is on record as 15.66; in data set [1] (0.5 g berberine/kg feed), 30.48; in [1] (1 g berberine/kg feed), 32.10. Moreover, the “Log2(fold change) of metabolite response at 48 h, B. coccoides pure culture over berberine-medium” value in the data set on B. coccoides (DSM 935) [8] is given as 1.71. The “Amount quantified in feces” value in data set [9] was 1.49%.
Turning to `COc1c(O)ccc2cc3[n+](cc12)CCc1cc2c(cc1-3)OCO2` [Thalifendine], the “Permeability across Caco-2 monolayers” value in the data set on Caco-2 monolayers is on record as “most permeable”. The “Log2(fold change) of metabolite response at 48 h, culture with bacteria over control (berberine-medium + microbiota)” value is on record as 4.46 in the data set on B. coccoides (DSM 935) [3]; 0.34 in data set [4]; 0.21 in data set [5]; -1.30 with Blautia luti (DSM 14534); 0.26 in data set [6]; 1.37 in [7]. In addition, the “Ratio caecum / ileum (concentration)” value in data set [1] (0.1 g berberine/kg feed) was determined as 6.68; in [1] (0.5 g berberine/kg feed), 29.03; in [1] (1 g berberine/kg feed), 21.17. Besides, in the data set on B. coccoides (DSM 935) [8], the “Log2(fold change) of metabolite response at 48 h, B. coccoides pure culture over berberine-medium” value turned out to be 9.30.
Consider `COc1cc2c(cc1OS(=O)(=O)[O-])-c1cc3ccc(OC)c(OC)c3c[n+]1CC2` [columbamine-sulfate], for which, in data set [2], the Detection in plasma result is “not detected”.
